# Test results published in patent US12472218B2, “Seneca valley virus (SVV) cellular receptor targeted oncotherapy” (Memorial Sloan-Kettering Cancer Center, priority 2015, dated 2025).
# B1: ANTXR1-Fc (protein)
# chain: EDGGPACYGGFDLYFILDKSGSVLHHWNEIYYFVEQLAHKFISPQLRMSFIVFSTRGTTLMKLTEDREQIRQGLEELQKVLPGGDTYMHEGFERASEQIYYENRQGYRTASVIIALTDGELHEDLFFYSEREANRSRDLGAIVYCVGVKDFNETQLARIADSKDHVFPVNDGFQALQGIIHSILKKSCIEILAAEPSTICAGESFQVVVRGNGFRHARNVDRVLCSFKINDSVTLNEKPFSVEDTYLLCPAPILKEVGMKAALQVSMNDGLSFISSSVIITTTHCSDGS
# modifications: left off: a dimerising Fc or GST
# B2: ANTXR2-Fc chimera (Fc fusion)
# chain: QEQPSCRRAFDLYFVLDKSGSVANNWIEIYNFVQQLAERFVSPEMRLSFIVFSSQATIILPLTGDRGKISKGLEDLKRVSPVGETYIHEGLKLANEQIQKAGGLKTSSIIIALTDGKLDGLVPSYAEKEAKISRSLGASVYCVGVLDFEQAQLERIADSKEQVFPVKGGFQALKGIINSILAQSCTEILELQPSSVCVGEEFQIVLSGRGFMLGSRNGSVLCTYTVNETYTTSVKPVSVQLNSMLCPAPILNKAGETLDVSVSFNGGKSVISGSLIVTATECSNG
# notes: Bought reagent; also called ANTXR2-Fc chimeric protein; ANTXR2-Fc protein; not shown: Fc part of the chimera; the control isotype is an IgG1 Fc
# B3: ANTXR2-Fc (protein)
# chain: B2 chain
# modifications: left off: a dimerising Fc or GST
# How the values were obtained:
# H1618 and DMS79 cells = test: IFN response activity assay: pre-treatment, SVV-GFP challenge, flow cytometry; details: then SVV-GFP 16 h, both cell lines; for GFP+ cells compared to untreated cells: 4 μM HDAC inhibitor pre-treatment 24 h
# DMS114 cells = test: SVV-Cy5 binding experiment, flow cytometry; parameters: species or system human; details: SVV-Cy5 30 min at 37° C.; non-permissive negative control line
# Protocol: (§1) SVV was incubated with the amine-reactive Cy5 dye (GE Healthcare) in sodium carbonate buffer (pH 9.3) for 1 h at room temperature (RT). Excess dye was removed by filtration through gel filtration columns (GE Healthcare) in HEPES buffer. Virus aliquots were stored at −80° C. parental, ANTXR1 KO, and TEX2 KO H446 cells were incubated with SVV-Cy5 for 30 min at 37° C. in OptiMEM. The non-permissive SCLC cell line, DMS114, was used as a negative control. […] All compensation and gating were performed with FlowJo analysis software (TreeStar) as described below.
# ANTXR1 KO H446 cells = test: SVV-Cy5 binding experiment, flow cytometry; parameters: species or system human; details: SVV-Cy5 30 min at 37° C.
# Protocol: as §1
# parental H446 cells = test: SVV-Cy5 binding experiment, flow cytometry; parameters: species or system human; details: SVV-Cy5 30 min at 37° C.
# Protocol: as §1
# TEX2 KO H446 cells = test: SVV-Cy5 binding experiment, flow cytometry; parameters: species or system human; details: SVV-Cy5 30 min at 37° C.
# Protocol: as §1
# SVV = test: Co-immunoprecipitation of SVV with Fc chimera proteins, Western blot; details: Fc protein on Protein G Dynabeads, SVV 2.0×10^10 vp, 2 h at 4° C.
# SVV-GFP = test: Blocking experiment: SVV-GFP pre-incubated with Fc protein, then added to parental H446 cells; details: 5 μg/mL Fc protein with SVV-GFP (MOI=5) on ice 1 h, then parental H446 cells overnight
# [1] = target: T1, Seneca Valley Virus (SVV) (Seneca Valley Virus, UniProt Q155Z9 674-937; Q155Z9 151-434; Q155Z9 435-673; Q155Z9 80-150); test: co-immunoprecipitation on Protein G Dynabeads, Western blot with SVV rabbit antisera
# T1 construct: domain: VP1;domain: VP2;domain: VP3;domain: VP4; also called SVV-001; WT SVV
# T1 sequence 1: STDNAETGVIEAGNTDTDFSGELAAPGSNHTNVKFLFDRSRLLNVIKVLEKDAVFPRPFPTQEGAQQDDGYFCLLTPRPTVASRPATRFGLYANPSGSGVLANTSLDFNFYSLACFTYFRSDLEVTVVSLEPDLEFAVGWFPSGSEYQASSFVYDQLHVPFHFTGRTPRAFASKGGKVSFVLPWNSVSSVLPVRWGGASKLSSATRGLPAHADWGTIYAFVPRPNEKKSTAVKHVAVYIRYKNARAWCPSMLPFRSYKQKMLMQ
# T1 sequence 2: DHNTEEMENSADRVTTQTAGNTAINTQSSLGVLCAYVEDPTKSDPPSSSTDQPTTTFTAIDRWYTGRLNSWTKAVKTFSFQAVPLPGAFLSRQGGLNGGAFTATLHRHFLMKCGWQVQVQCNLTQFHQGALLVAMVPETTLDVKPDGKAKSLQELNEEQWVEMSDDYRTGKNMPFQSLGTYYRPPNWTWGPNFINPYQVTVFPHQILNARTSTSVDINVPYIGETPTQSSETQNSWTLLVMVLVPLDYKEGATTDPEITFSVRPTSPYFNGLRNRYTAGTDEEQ
# T1 sequence 3: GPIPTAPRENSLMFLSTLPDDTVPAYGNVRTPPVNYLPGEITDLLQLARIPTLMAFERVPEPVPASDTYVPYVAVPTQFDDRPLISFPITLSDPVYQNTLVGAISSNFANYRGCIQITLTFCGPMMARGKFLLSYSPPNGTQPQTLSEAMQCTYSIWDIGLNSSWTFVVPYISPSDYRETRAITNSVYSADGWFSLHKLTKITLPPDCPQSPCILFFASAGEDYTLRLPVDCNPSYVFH
# T1 sequence 4: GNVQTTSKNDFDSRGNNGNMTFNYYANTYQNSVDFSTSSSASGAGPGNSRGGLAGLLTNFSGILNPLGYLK
molecule,measurement,setting,value
Nc1ccccc1NC(=O)c1ccc(CNC(=O)OCc2cccnc2)cc1 [MS-275],GFP+ cells compared to untreated cells,H1618 and DMS79 cells,significant increase
"O=C(CCCCCCC(=O)Nc1ccccc1)NO [SAHA, Vorinostat]",GFP+ cells compared to untreated cells,H1618 and DMS79 cells,significant increase
IFNα,"SVV permissive, or GFP+ cells",H1618 and DMS79 cells; 25 Units/mL IFN pre-treatment 24 h,decrease
SVV-Cy5: WT SVV labeled with the fluorophore Cy5,mean fluorescence (MF),DMS114 cells,425
same,mean fluorescence (MF),ANTXR1 KO H446 cells,358
same,mean fluorescence (MF),parental H446 cells,"2,373"
same,mean fluorescence (MF),TEX2 KO H446 cells,"2,233"
B1,SVV viral protein bands co-immunoprecipitated (direct interaction with SVV),SVV,viral protein bands were observed
same,GFP+ cells (SVV-GFP infection) by fluorescence microscopy,SVV-GFP,no detectable GFP+ cells
B2,binding result,[1],no binding
B3,SVV viral protein bands co-immunoprecipitated (direct interaction with SVV),SVV,absence of an interaction
same,GFP+ cells (SVV-GFP infection) by fluorescence microscopy,SVV-GFP,high levels of GFP+ cells
